Data taken from US20250312336A1, “Compositions And Methods For Treating Cancer With Calcium Channel Inhibitors” (Institute for Cancer Research d/b/a The Research Institute …, priority 2024, published 2025).
Entries after “also recorded” stand apart in the source; their conditions may differ.

Experiments:
[1] = system: PtdSer externalization in KPC tumors; assay: Phosphatidylserine imaging in autochthonous KPC pancreatic tumors; type: in vivo, mouse; settings: KPC mice
KPC3 pancreatic tumors = assay: Orthotopic syngeneic KPC3 pancreatic tumor growth; type: in vivo, mouse; settings: oral gavage 5 days/week for 3 weeks; niclosamide 150 mg/kg, clofazimine 50 mg/kg
Description: Syngeneic 5×10^5 KPC3 cells were injected into the tail of pancreas of anesthetized C57B1/6J mice. […] Mice were kept under defined-flora pathogen-free conditions at the AAALAC-approved Animal Facility of the Fox Chase Cancer Center, Philadelphia, PA. Mice of both genders, equally distributed, were used for the experiments.

OT-1 CTLs = assay: Trogocytosis assay of DiD-labeled CAFs co-cultured with OT-1 CTLs; type: cell-based, mouse; settings: 12 h co-culture; niclosamide 1 μM, clofazimine 1 μM, anti-TIM3 Ab 4 μg/ml, 25-hydroxycholesterol 4 μM
Description: For trogocytosis between OT-1 and CAF cells, T cells were isolated from splenocytes of OTI mice (strain 021880, The Jackson Laboratory) and stimulated with OVA257-264 (1 μg/ml) for 24 hours as described.
Cholesterol abundance in cell membranes was determined with Cholesterol Detection Assay Kit (Cayman, cat #10009779). Dissociated cells were fixed with fixative solution for 10 minutes, washed and labeled with Filipin III as per the manufacturer's instructions. Labeling with Filipin III was done by incubating in the dark for 30 minutes. After two washes for 5 minutes each, labeling was analyzed by flow cytometry (excitation: 340-380, emission: 385-470). The IFN-γ, Granzyme B and Foxp3 were detected using Foxp3/Transcription Factor Staining Buffer (00-5523-00, Thermo Fisher Scientific). Cells were stained for cell surface markers at 4° C. for 30 min followed by fixation and permeabilization buffer for 30 mins and two washes with permeabilization buffer and incubation with the indicated antibodies for 30 mins, washed with PBS twice followed by flow cytometry analysis.

[2] = system: TMEM16F-dependent syncytia induced by SARS-COV-2; settings: previous studies; cited from earlier work
ANO6 [3] = target: T1, ANO6 (Homo sapiens, UniProt Q4KMQ2); assay: PtdSer externalization (annexin XII) in CAFs co-cultured with DsRed-tagged Panc-1 cells; type: cell-based; parameters: this increase was observed only in control CAFs (ANO6-proficient) engaged in physical contacts with DsRed-tagged Panc-1 cells; endogenous in cells; host or cells: human CAFs in co-culture with DsRed-tagged Panc-1 cells; settings: BTP2 10 μM; clofazimine 1 μM; niclosamide
T1 sequence (Q4KMQ2 1-910): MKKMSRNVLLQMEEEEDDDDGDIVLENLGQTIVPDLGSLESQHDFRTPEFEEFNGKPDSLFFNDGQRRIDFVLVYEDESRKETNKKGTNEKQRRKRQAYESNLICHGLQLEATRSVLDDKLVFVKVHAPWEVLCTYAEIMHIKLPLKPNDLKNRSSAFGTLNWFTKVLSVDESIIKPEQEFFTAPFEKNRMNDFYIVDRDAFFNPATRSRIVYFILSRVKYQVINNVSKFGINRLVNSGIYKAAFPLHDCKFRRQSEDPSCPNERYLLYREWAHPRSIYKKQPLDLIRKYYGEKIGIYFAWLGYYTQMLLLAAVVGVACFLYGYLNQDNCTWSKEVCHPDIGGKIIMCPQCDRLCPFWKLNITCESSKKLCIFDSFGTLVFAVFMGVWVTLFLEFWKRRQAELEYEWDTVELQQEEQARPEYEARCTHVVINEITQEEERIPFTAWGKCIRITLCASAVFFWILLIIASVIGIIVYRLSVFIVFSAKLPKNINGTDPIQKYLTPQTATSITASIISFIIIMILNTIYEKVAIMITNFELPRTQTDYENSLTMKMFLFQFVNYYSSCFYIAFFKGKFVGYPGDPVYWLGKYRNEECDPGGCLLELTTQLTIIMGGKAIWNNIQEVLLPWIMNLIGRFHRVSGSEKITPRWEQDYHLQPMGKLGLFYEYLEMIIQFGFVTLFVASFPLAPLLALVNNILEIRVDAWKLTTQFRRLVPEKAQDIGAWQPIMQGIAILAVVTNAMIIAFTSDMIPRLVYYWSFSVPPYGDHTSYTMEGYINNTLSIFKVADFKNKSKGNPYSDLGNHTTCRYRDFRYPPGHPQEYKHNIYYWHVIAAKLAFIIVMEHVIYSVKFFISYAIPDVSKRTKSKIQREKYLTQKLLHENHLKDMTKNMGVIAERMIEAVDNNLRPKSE
Description: (§1) CAFs were seeded in 24-well glass bottom plates (cat. #81156, Ibidi, Fitchburg, WI) at a density of 20,000 cells per well. Cells were then treated with niclosamide (1 μM) for 2 h. After one wash with FBS-free media at RT, cells were incubated with 250 μl of 1:100 annexin XII and 1:200 propidium iodide (pSIVA Abcam #ab129817), with or without 10 μM ionomycin. Cells were then incubated (5 min 37C) and imaged by fluorescence microscopy using a Nikon A1 camera (Nikon) linked to a Nikon Eclipse Ti2-E Inverted Microscope Imaging System (Nikon) for each channel. Fifteen images per well were acquired.

Panc-1 cells = assay: Viability of Panc-1 cells under HDL receptor blockade; type: cell-based, human; settings: HDL receptor inhibitor, LDS
Description: For direct enumeration of viable cells in co-cultures with CAFs, we seeded CAFs at 12,000 cells per well in 96-well plate (#3603, Corning) in DMEM/10% FBS. The next day, the media was replaced with 10%/LDS/DMEM and 4,000 DsRed-tagged Panc-1 cells were plated on the top of CAFs at 3:1 ratio. After 96 hours, fluorescence of viable DsRed-positive Panc-1 cells was measured using Spark Multimode Microplate Reader (Tecan) with parameters set at 540 nm for excitation and 590 nm for detection. To measure the dynamics of cell proliferation in vitro, we used xCELLigence E-Plate (ACEA BioSciences,) as per the manufacturer's recommended protocol. Impedance values were recorded every hour. Data was graphed using GraphPad Prism software.

[4] = system: DsRed-tagged PDAC KPC3 tumors; assay: Intravital multiphoton imaging of BODIPY-cholesterol LDL uptake in DsRed-tagged KPC3 tumors; type: in vivo, mouse
Description: Mice with established orthotopic tumors roughly 21 days post implantation were anesthetized with 1.5-2% isoflurane/oxygen mixture maintained for the duration of imaging. Pancreatic tumors were exposed through a 1 cm incision on the left flank of the mouse placed on a 35° C. heating pad (Kent Scientific). Intensity thresholds were set up to distinguish signal from background fluorescence, and areas positive for DsRed, indicative of tumor cells, were selected for 3D confocal imaging using a 25× objective in the Leica SP8 Dive multiphoton imaging system (Leica Microsystems), prior to the intravenous administration of 150 μL of LDL carrying BODIPY-cholesterol and at 0.5, 1, 5, 16, and 19-hour interval post injection with XY resolution 0.867 um/px and Z distance 2 μm. For each time interval, 2-3 mice were imaged for 0.5-2 hours under continuous anesthesia. At the end of each imaging session, the animals were euthanized, and tissues were collected. The acquired 3D stacks were analyzed using Imaris 10.0.0 software (Oxford Instruments, UK). […] Mean intensity of cholesterol volume co-localized with tumor volume or volume outside of tumor was measured and ratio inside intensity/outside intensity was calculated. […] The volume of vesicles inside the tumor were expressed as a percentage relative to tumor volume.

CAF1 fibroblasts = assay: Western blot of signaling epitopes in CAF1 fibroblast lysates; type: cell-based, human; settings: band densities relative to vehicle control
Description: Functional fibroblastic cell 3D culture units are needed to ensure the pathophysiological signal reciprocity between fibroblastic cells and self-generated ECM is sustained ex vivo. These units were generated using known methods. Briefly, confluent cultures of human pancreatic fibroblastic cells, harvested from surgical samples and immortalized via hTERT overexpression, were supplemented daily with freshly-prepared ascorbic acid (50 ug/mL) for a period lasting 5 days. The resulting fibroblastic/ECM 3D functional units were used for the phenotypic characterization of the units and to report on the pro-tumor vs. tumor-suppressive (normalized) statuses of the experimental fibroblastic/ECM units. For this, lysates obtained from the assorted units were resolved using SDS-PAGE and traits were gauged via western blot; testing for constitutive integrin and PI3K activities depicted by phosphorylated FAK and AKT respectively. Cultured cells were lysed in RIPA buffer (#24928, Santa Cruz) with phosphatase inhibitor (#1862495, Thermo Fisher Scientific) and protease inhibitors (#1861278, Thermo Fisher Scientific) on ice and cleared by centrifugation (15 min at 17,000 g). The protein concentration was measured with a Pierce BCA Protein Assay Kit (#23225, Thermo Fisher Scientific). […] The density of obtained bands was quantified with Image J software (FIJI).

ANO6 [5] = target: T1, ANO6; assay: Phosphatidylserine externalization assay in CAFs pulsed with ionomycin (annexin XII); type: cell-based; parameters: endogenous in cells; host or cells: human patient-derived, hTERT-immortalized pancreatic cancer-associated fibroblasts (CAFs); settings: niclosamide 1 μM 2 h; ionomycin 5 minutes at 10 μM; annexin XII staining
Description: as §1

| SMILES | PtdSer externalization in cytokeratin-positive cancer cells and podoplanin-positive CAFs (KL5c betabody) ([1]; two daily doses 50 mg/kg, 50 μg KL5c IV 5 hours prior to sacrifice) | PtdSer externalization in KPC tumors (PSVue-794 infrared probe) ([1]; two daily doses 50 mg/kg, probe IV 24 hours prior to sacrifice) | Detection of externalized PtdSer in PDAC using two chemically unrelated probes ([1]; two daily doses of clofazimine 50 mg/kg, KL5c betabody and PSVue-794) | Tumor weights of orthotopic syngeneic KPC3 pancreatic tumors (KPC3 pancreatic tumors) | Transfer of DiD (CAF PM uptake) from CAFs to OT-1 CTLs (OT-1 CTLs) | Formation of TMEM16F-dependent syncytia induced by SARS-COV-2 [2] | PtdSer externalization (annexin XII) in CAFs co-cultured with Panc-1 cells (ANO6 [3]) | Panc-1 viability (Panc-1 cells) | Cholesterol accumulation in intratumoral vesicles containing BODIPY-cholesterol ([4]; 19 hours post injection) | BODIPY-cholesterol accumulation in DsRed-tagged PDAC KPC3 cells ([4]; niclosamide-treated mice, after intravenous labeled LDL, 10, 16 and 19 hours) | Signaling: expression of indicated protein epitopes in total cellular lysates of unmodified CAF1 fibroblasts (CAF1 fibroblasts) | PtdSer externalization induced by ionomycin in CAFs pre-treated with inhibitor (ANO6 [5]) |
| --- | --- | --- | --- | --- | --- | --- | --- | --- | --- | --- | --- | --- |
| CC(C)/N=c1\cc2n(-c3ccc(Cl)cc3)c3ccccc3nc-2cc1Nc1ccc(Cl)cc1 [clofazimine] | blocks PtdSer externalization | blocks PtdSer externalization | completely suppressed detection of externalized PtdSer | significantly reduced tumor weights | notably suppressed the measured transfer | block formation | suppressed PtdSer externalization; also recorded: blocked |  |  |  |  |  |
| CCCCCCC1CCCC1=NNC(N)=S (stereo not shown) [BTL1] |  |  |  |  |  |  |  | loss of Panc-1 viability |  |  |  |  |
| O=C(Nc1ccc([N+](=O)[O-])cc1Cl)c1cc(Cl)ccc1O [niclosamide] |  |  |  | significantly reduced tumor weights | notably suppressed the measured transfer | block formation | absence of annexin XII labeling |  | significantly lower accumulation | suppressed BODIPY-cholesterol accumulation | suppresses signaling | did not cause externalized PtdSer; also recorded: prevents PtdSer externalization |
